Experimental data: US20230075521A1, “RESVERATROL PHARMACEUTICAL COMPOSITIONS AND METHODS OF USE THEREOF” (priority 2021, published 2023)

System: 3×Tg-AD mice
Assay: Behavior battery, long-term prophylactic treatment
Type: in vivo, mouse
Settings: 50 mg/kg oral, at 6 or 10 months of age
Procedure: For long-term prophylactic studies, a cohort of 30 mice was used (50% males and females). […] JOTROL™ and RSV were prepared under red light and administered using a red syringe and metal gavage to prevent light exposure. Mice were treated 5 days a week for 9 months beginning at 4 months of age (prior to disease development). As detailed below, a battery of behavioral tests was conducted, including Y-maze spontaneous alternation, open field, rotarod, novel object recognition, Barnes maze, and object location memory. A battery of behavior tests designed to test motor coordination skills, anxiety, spatial learning and reference memory was performed on all long-term-treated mice. Motor coordination was evaluated using rotarod. Anxiety was evaluated by open field and elevated 0-maze tests. […] Motor coordination was assessed by the latency to fall on the very first trial between treatment groups. Motor learning was measured both within and between sub-jects by comparing the first trial with subsequent trials and is evident as an increased latency to fall over time. […] Distance, velocity, and time in center versus periphery were recorded and analyzed. Anxiety-related behavior can be determined by the duration spent in the center of the field versus the periphery. […] Total arm entries and percent of spontaneous alternations were recorded. […]

Question: Which “Y-maze spontaneous alternation performance” value does the source give for `Oc1ccc(/C=C/c2cc(O)cc(O)c2)cc1` [RSV, (trans-)resveratrol] here?
Answer: No significant group differences
